Test results from US10611732B2, “HIV replication inhibiting pyrimidines” (Janssen Pharmaceutica NV, priority 2001, dated 2020).
Like-named read-outs stand apart in the source and are kept apart here.

Key:
mock-infected MT-4 cells = assay: cytotoxicity in mock-infected MT-4 cells (MTT)
Procedure: (§1) A rapid, sensitive and automated assay procedure was used for the in vitro evaluation of anti-HIV agents. An […] T4-cell line, MT-4, which was previously shown (Koyanagi et al., Int. J Cancer, 36, 445-451, 1985) to be highly susceptible to and permissive for HIV infection, served as the target cell line. Inhibition of the HIV-induced cytopathic effect was used as the end point. The viability of both HIV- and mock-infected cells was assessed spectrophotometrically via the in situ reduction of 3-(4,5-dimethylthiazol-2-yl)-2,5-diphenyltetrazolium bromide (MTT). The 50% cytotoxic concentration (CC50 in M) was defined as the concentration of compound that reduced the absorbance of the mock-infected control sample by 50%. The percent protection achieved by the compound in HIV-infected cells was calculated by the following formula:
(§2) [formula] whereby (ODT)HIV is the optical density measured with a given concentration of the test compound in HIV-infected cells; (ODC)HIV is the optical density measured for the control untreated HIV-infected cells; (ODC)MOCK is the optical density measured for the control untreated mock-infected cells; all optical density values were determined at 540 nm. The dose achieving 50% protection according to the above formula was defined as the 50% inhibitory concentration (IC50 in M). The ratio of CC50 to IC50 was defined as the selectivity index (SI).
(§3) Table 6 lists the pIC50 (−log IC50), pCC50 (−log CC50) and pSI (pCC50-pIC50) values for the compounds of formula (I).

HIV = assay: microbe, parasite or virus in culture; conditions: for pIC50 (−log IC50): HIV-infected MT-4 cells; for pIC50 (−log IC50) / IC50: dose achieving 50% protection, MTT, OD 540 nm; for pSI (pCC50-pIC50): selectivity index, ratio of CC50 to IC50, as log difference; for IC50: Human immunodeficiency virus 1, MT4, read-out: pIC50 (−log IC50), HIV-infected MT-4 cells (converted)
Procedure: as §1, §2, §3

[1] = mock-infected MT-4 cells, concentration reducing absorbance of control by 50%, MTT

| Structure (SMILES) | pCC50 (−log CC50) (mock-infected MT-4 cells) [M] | pIC50 (−log IC50) (HIV) | pSI (pCC50-pIC50) (HIV) | pCC50 (−log CC50) (mock-infected MT-4 cells; [1]) [M] | IC50 (HIV) [nM] |
| --- | --- | --- | --- | --- | --- |
| Cc1cc(C=C(C#N)CC#N)cc(C)c1Nc1ccnc(Nc2ccc(C#N)cc2)n1 (mixture of isomers) [Compound 147] | 5.7 | 9.4 | −3.7 | – | – |
| Cc1cc(/C=C/C#N)cc(C)c1Nc1ccnc(Nc2ccc(C#N)cc2)n1 [Compound 1, 4-[[4-[[4-(2-cyanoethenyl)-2,6-dimethylphenyl]amino]-2-pyrimidinyl]amino]benzonitrile (E)] | – | – | −4.4 | 5.0 | 0.398 |
| Cc1cc(-c2ccco2)cc(C)c1Nc1ccnc(Nc2ccc(C#N)cc2)n1 [Compound 3] | – | – | −2.9 | – | 3.98 |
| CO/N=C(\c1cc(C)c(Nc2ccnc(Nc3ccc(C#N)cc3)n2)c(C)c1)C(C)C [Compound 9] | – | – | −4 | – | 1.58 |
| Cc1cc(/C=C\C#N)cc(C)c1Nc1ccnc(Nc2ccc(C#N)cc2)n1 [Compound 10] | 6.3 | – | −2.9 | – | – |
| C/C(C#N)=C/c1cc(C)c(Nc2ccnc(Nc3ccc(C#N)cc3)n2)c(C)c1 [Compound 11] | 5.7 | 9.2 | −3.5 | – | – |
| Cc1cc(C(O)CC#N)cc(C)c1Nc1ccnc(Nc2ccc(C#N)cc2)n1 (stereo not shown) [Compound 18] | – | – | −4.0 | – | 1.58 |
| Cc1cc(-c2ccsc2)cc(C)c1Nc1ccnc(Nc2ccc(C#N)cc2)n1 [Compound 21] | – | – | −3.5 | – | 3.98 |
| Cc1cc(CCC#N)cc(C)c1Nc1ccnc(Nc2ccc(C#N)cc2)n1 [Compound 24] | – | – | −3.4 | – | 0.794 |
| Cc1cc(C=CC#N)cc(C)c1Oc1ccnc(Nc2ccc(C#N)cc2)n1 [Compound 25] | – | 9 | −5 | – | – |
| CC(=O)c1cccc(-c2cc(C)c(Nc3ccnc(Nc4ccc(C#N)cc4)n3)c(C)c2)c1 [Compound 34] | – | – | −3.2 | – | 10 |
| CC(=NO)c1cc(C)c(Nc2ccnc(Nc3ccc(C#N)cc3)n2)c(C)c1 [Compound 45] | 5.0 | 8.7 | −3.8 | – | – |
| Cc1cc(/C=C(\C#N)c2cccs2)cc(C)c1Nc1ccnc(Nc2ccc(C#N)cc2)n1 [Compound 49] | – | – | −3.2 | – | 10 |
| Cc1cc(Cn2ccnc2)cc(C)c1Nc1ccnc(Nc2ccc(C#N)cc2)n1 [Compound 70] | – | – | −3.3 | – | 7.94 |
| Cc1cc(CN(C)CCC#N)cc(C)c1Nc1ccnc(Nc2ccc(C#N)cc2)n1 [Compound 75] | 5.0 | 9.0 | −4.0 | – | – |
| Cc1cc(CN2CCSC2)cc(C)c1Nc1ccnc(Nc2ccc(C#N)cc2)n1 [Compound 78] | – | – | −3.5 | – | 3.98 |
| CCN(Cc1ccncc1)Cc1cc(C)c(Nc2ccnc(Nc3ccc(C#N)cc3)n2)c(C)c1 [Compound 79] | – | – | −2.7 | – | 10 |
| C/C(=C\C#N)c1cc(C)c(Nc2ccnc(Nc3ccc(C#N)cc3)n2)c(C)c1 [Compound 84] | 4.5 | 9.0 | −4.5 | – | – |
| Cc1cc(-n2cccc2)cc(C)c1Oc1ccnc(Nc2ccc(C#N)cc2)n1 [Compound 118] | – | – | <−4.1 | – | 3.98 |
| Cc1cc(/C(Cl)=C\C#N)cc(C)c1Nc1ccnc(Nc2ccc(C#N)cc2)n1 [Compound 124] | – | – | −3.8 | – | 3.16 |
| Cc1cc(/C=C/C#N)cc(Cl)c1Nc1ccnc(Nc2ccc(C#N)cc2)n1 [Compound 133] | 4 | 9.2 | −5.2 | – | – |
| Cc1cc(CC(C#N)C#N)cc(C)c1Nc1ccnc(Nc2ccc(C#N)cc2)n1 [Compound 144] | 6.4 | 8.6 | −2.2 | – | – |
| Cc1cc(/C=C/c2cccnc2)cc(C)c1Nc1ccnc(Nc2ccc(C#N)cc2)n1 [Compound 145] | – | – | −3.4 | – | 2 |
| Cc1cc(/C=C/c2cccnc2)cc(C)c1Nc1ccnc(Nc2ccc(C#N)cc2)n1 [Compound 146] | – | 8.4 | −3 | 5.4 | – |

| Structure (SMILES) | pCC50 (−log CC50) (mock-infected MT-4 cells) [M] | pIC50 (−log IC50) (HIV) | pSI (pCC50-pIC50) (HIV) | pCC50 (−log CC50) (mock-infected MT-4 cells; [1]) [M] | IC50 (HIV) [nM] |
| --- | --- | --- | --- | --- | --- |
| CC/C(=C\C#N)c1cc(C)c(Nc2ccnc(Nc3ccc(C#N)cc3)n2)c(C)c1 [Compound 148] | 4.9 | 8.8 | −3.9 | – | – |
| Cc1cc(/C(=C/C#N)C(C)C)cc(C)c1Nc1ccnc(Nc2ccc(C#N)cc2)n1 [Compound 149] | 5.3 | 9.1 | −3.8 | – | – |
| Cc1cc(/C(=C\C#N)C(C)C)cc(C)c1Nc1ccnc(Nc2ccc(C#N)cc2)n1 [Compound 150] | 4.8 | 8.8 | −4.0 | – | – |
| C/C(C#N)=C/c1cc(C)c(Nc2ccnc(Nc3ccc(C#N)cc3)n2)c(C)c1 [Compound 151] | 5.5 | 9.1 | −3.6 | – | – |
| C/C(C#N)=C/c1cc(C)c(Nc2ccnc(Nc3ccc(C#N)cc3)n2)c(C)c1 [Compound 152] | 4.8 | 9.1 | −4.3 | – | – |
| Cc1cc(CC(C)C#N)cc(C)c1Nc1ccnc(Nc2ccc(C#N)cc2)n1 (stereo not shown) [Compound 153] | 6.3 | 9.2 | −2.9 | – | – |
| Cc1cc(/C=C/C(=O)N2CCN(C)CC2)cc(C)c1Nc1ccnc(Nc2ccc(C#N)cc2)n1 [Compound 155] | – | – | −2.5 | – | 1.58 |
| Cc1cc(/C=C/C(=O)N2CCOCC2)cc(C)c1Nc1ccnc(Nc2ccc(C#N)cc2)n1 [Compound 156] | – | – | −2.6 | – | 20 |
| CCN(C)C(=O)/C=C/c1cc(C)c(Nc2ccnc(Nc3ccc(C#N)cc3)n2)c(C)c1 [Compound 158] | 5.5 | 8 | −2.5 | – | – |
| Cc1cc(CN(C)C=NC#N)cc(C)c1Oc1ccnc(Nc2ccc(C#N)cc2)n1 [Compound 174] | 5.3 | 8.8 | −3.5 | – | – |
| Cc1cc(/C=C\Br)cc(C)c1Oc1ccnc(Nc2ccc(C#N)cc2)n1 [Compound 177] | <4.0 | 8.3 | <−4.3 | – | – |
| C/C(C#N)=C/c1cc(C)c(Oc2ccnc(Nc3ccc(C#N)cc3)n2)c(C)c1 [Compound 178] | 5.7 | 8.8 | −3.1 | – | – |
| C/C(C#N)=C\c1cc(C)c(Oc2ccnc(Nc3ccc(C#N)cc3)n2)c(C)c1 [Compound 179] | <4.0 | 8.9 | <−4.9 | – | – |
| Cc1cc(/C=C/C(=O)N2CC=CC2)cc(C)c1Oc1ccnc(Nc2ccc(C#N)cc2)n1 [Compound 209] | – | – | −3.7 | – | 2.51 |
| Cc1cc(/C=C/C(=O)N(C)C2CCN(C)CC2)cc(C)c1Oc1ccnc(Nc2ccc(C#N)cc2)n1 [Compound 210] | – | – | −3.5 | – | 5.01 |
| Cc1cc(/C=C/C(=O)N(C)CC#N)cc(C)c1Oc1ccnc(Nc2ccc(C#N)cc2)n1 [Compound 212] | 5 | 9.1 | −4.1 | – | – |
| CC(=CC#N)c1cc(C)c(Oc2ccnc(Nc3ccc(C#N)cc3)n2)c(C)c1 [Compound 213] | 4.8 | 9 | −4.2 | – | – |
| Cc1cc(/C=C/C(=O)N(C)CCC#N)cc(C)c1Oc1ccnc(Nc2ccc(C#N)cc2)n1 [Compound 214] | 5.1 | 8.6 | −3.5 | – | – |
| CCN(C)C(=O)/C=C/c1cc(C)c(Oc2ccnc(Nc3ccc(C#N)cc3)n2)c(C)c1 [Compound 215] | 5.5 | 9.1 | −3.6 | – | – |
| Cc1cc(/C=C/C(=O)N2CCOCC2)cc(C)c1Oc1ccnc(Nc2ccc(C#N)cc2)n1 [Compound 216] | – | – | −3.6 | – | 6.31 |
| Cc1cc(/C=C/C(=O)N(C)C)cc(C)c1Oc1ccnc(Nc2ccc(C#N)cc2)n1 [Compound 219] | 5 | 9.1 | −4.1 | – | – |
| Cc1cc(CCC#N)ccc1Nc1ccnc(Nc2ccc(C#N)cc2)n1 [Compound 227] | <4.0 | 9.5 | <−5.5 | – | – |
| CC(C#N)=Cc1ccc(Nc2ccnc(Nc3ccc(C#N)cc3)n2)c(C)c1 [Compound 229] | <4.0 | 8.8 | <−4.8 | – | – |
| Cc1cc(/C=C/C#N)ccc1Oc1ccnc(Nc2ccc(C#N)cc2)n1 [Compound 230] | <4.0 | 9.2 | <−5.2 | – | – |
